Data as given in patent US11219621B2, “Methods for treating immunodeficiency disease” (X4 Pharmaceuticals, Inc., priority 2015, dated 2022).

What was measured:
[1] = system: white blood cells (WBC), neutrophils, lymphocytes; experiment: Hematologic effects of a single oral dose in the male Beagle dog; assay type: in vivo
Experimental: Three fasted male Beagle dogs received a single dose of […]-001 in aqueous solution by oral gavage at dose levels of 5, 15, and 35 mg/kg (1 dog per dose level) in a volume of 1 mL/kg. Blood samples (approximately 3 mL each) were obtained at multiple timepoints from each animal by direct venipuncture of the jugular vein and collected using Vacutainer® tubes containing K3EDTA as the anticoagulant. […] Blood samples were stored at ambient room temperature prior to automated differential analysis Body weights were determined prior to dosing on the day of test article administration. […] Hematology parameters included the following: White Blood Cell Count (WBC) Differential white blood cell count (absolute and relative) • Neutrophil • Lymphocytes • Monocytes • Eosinophils • Basophils • Large Unstained Cells (LUC) • Hematocrit (HCT) • Hemoglobin (HGB) • Mean Corpuscular Hemoglobin (MCH) • Mean Corpuscular Hemoglobin Concentration (MCHC) • Mean Corpuscular Volume (MCV) • Platelet Count (PLT) • Red Blood Cell Count (RBC) Results

CXCR3 = target: T1, CXCR3 (Homo sapiens, UniProt P49682); settings: cited from earlier work
T1 construct: expressed in transfected cells
T1 sequence (P49682 1-368): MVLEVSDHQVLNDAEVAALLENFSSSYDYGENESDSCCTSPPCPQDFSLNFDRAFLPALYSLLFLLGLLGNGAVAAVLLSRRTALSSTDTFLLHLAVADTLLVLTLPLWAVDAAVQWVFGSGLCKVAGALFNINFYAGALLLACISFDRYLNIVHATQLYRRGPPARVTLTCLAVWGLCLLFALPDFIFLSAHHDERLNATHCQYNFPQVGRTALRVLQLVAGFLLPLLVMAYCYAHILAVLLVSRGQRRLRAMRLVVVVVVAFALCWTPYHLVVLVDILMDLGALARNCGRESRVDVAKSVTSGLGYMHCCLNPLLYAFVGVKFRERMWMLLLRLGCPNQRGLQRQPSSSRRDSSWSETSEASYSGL

CXCR7 = target: T2, CXCR7 (Homo sapiens, UniProt P25106); set-up: Inhibition of SDF-1α binding to CXCR7: dose or concentration left out as unconfirmed; settings: cited from earlier work
T2 construct: expressed in transfected cells

CCR1 = target: T3, CCR1 (Homo sapiens, UniProt P32246); settings: cited from earlier work
T3 construct: expressed in transfected cells; host or cells: HEK293F
T3 sequence (P32246 1-355): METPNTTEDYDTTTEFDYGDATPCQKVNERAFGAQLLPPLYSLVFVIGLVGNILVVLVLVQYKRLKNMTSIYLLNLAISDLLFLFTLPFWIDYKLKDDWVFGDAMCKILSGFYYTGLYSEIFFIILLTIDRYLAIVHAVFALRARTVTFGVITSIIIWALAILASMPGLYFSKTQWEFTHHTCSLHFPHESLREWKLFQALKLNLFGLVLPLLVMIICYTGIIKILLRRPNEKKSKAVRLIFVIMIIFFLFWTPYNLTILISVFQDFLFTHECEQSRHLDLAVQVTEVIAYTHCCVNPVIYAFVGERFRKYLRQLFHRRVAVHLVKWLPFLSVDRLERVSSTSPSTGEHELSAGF

CCR2b = target: T4, CCR2b (Homo sapiens, UniProt P41597); settings: cited from earlier work
T4 construct: expressed in transfected cells
T4 sequence (P41597 1-360 isoform P41597-2): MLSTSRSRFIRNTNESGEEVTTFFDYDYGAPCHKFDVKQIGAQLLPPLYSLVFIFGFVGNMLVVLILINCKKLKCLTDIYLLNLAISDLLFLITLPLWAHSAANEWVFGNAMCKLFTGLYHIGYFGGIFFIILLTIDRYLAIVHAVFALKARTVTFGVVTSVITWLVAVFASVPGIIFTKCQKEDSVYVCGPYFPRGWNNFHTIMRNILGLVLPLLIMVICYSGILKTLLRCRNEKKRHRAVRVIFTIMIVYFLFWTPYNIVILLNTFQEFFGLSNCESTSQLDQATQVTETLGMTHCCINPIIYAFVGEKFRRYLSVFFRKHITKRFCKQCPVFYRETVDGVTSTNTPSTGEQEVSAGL

[2] = human, in vivo
CCR5 = target: T5, CCR5 (Homo sapiens, UniProt P51681); settings: cited from earlier work
T5 construct: expressed in transfected cells

[3] = Clinical studies, oral administration to healthy volunteers and HIV patients
[4] = system: granulocyte-macrophage (CFU-GM), erythroid (BFU-E) and multipotential (CFU-GEMM) progenitor cells; experiment: Progenitor/stem cell mobilization in mice after single subcutaneous injection; assay type: in vivo, C3H/HeJ mice
[5] = single oral dose 5, 15, 35 mg/kg

T2 sequence (P25106 whole entry): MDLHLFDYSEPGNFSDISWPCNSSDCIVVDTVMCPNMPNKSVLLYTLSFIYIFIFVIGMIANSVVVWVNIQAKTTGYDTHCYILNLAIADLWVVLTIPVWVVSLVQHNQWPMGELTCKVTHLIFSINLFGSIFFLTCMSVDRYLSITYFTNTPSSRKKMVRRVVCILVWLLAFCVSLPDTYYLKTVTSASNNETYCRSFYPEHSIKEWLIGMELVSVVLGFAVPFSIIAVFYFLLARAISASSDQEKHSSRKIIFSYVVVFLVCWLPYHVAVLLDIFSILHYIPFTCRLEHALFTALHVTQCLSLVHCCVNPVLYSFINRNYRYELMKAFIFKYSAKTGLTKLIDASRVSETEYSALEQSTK
T5 sequence (P51681 whole entry): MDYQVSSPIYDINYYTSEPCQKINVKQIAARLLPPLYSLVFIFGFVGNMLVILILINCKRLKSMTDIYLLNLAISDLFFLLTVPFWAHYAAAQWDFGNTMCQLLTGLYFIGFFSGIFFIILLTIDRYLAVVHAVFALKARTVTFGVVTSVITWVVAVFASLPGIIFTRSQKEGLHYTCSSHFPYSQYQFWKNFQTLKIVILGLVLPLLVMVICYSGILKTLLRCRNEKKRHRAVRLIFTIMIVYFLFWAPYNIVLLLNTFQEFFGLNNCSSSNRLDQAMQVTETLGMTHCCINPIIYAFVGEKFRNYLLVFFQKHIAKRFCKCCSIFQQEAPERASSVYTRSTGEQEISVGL

NCCCCN(Cc1nc2ccccc2[nH]1)[C@H]1CCCc2cccnc21 [X4P-001]
Peak elevations of WBC above baseline ([1]; 5 mg/kg dose level): 1.5 fold | Total circulating WBC, neutrophils, and lymphocytes, increase ([1]; 5 mg/kg, all three cell counts): 1.47 × baseline | Lymphocytes, increase ([1]; 15 mg/kg): 2.9 × | Neutrophils, increase ([1]; 15 mg/kg): 1.8 × | Lymphocytes, increase ([1]; 35 mg/kg): 1.9 × | Neutrophils, increase ([1]; 35 mg/kg): 2.7 × | Time at which increases were consistently apparent ([1]; 5, 15, and 35 mg/kg): 4 h | Time of peak of increases ([1]; 5, 15, and 35 mg/kg, typically, occasionally earlier): ~12 h | Peak elevations of WBC above baseline ([1]; 15 and 35 mg/kg dose levels): 1.8-2.9 fold | WBC, neutrophil, and lymphocyte counts at 24 hours ([1]; 15 and 35 mg/kg, with evidence of return to baseline): remained elevated | Other hematological effects [1, 5]: No other hematological effects | Time of maximal increases in WBC [1, 5]: 4-12 hours post-dose | IC50 (CXCR3; CXCR3, HEK293F-CXCR3-Gαq15, IP-10/CXCL10, read-out: IC50 AMD11070): > 50 µM | Inhibitory effect on IP10 mediated calcium flux (CXCR3) (CXCR3): little or no inhibitory effect | IC50 (CXCR7; CXCR7, Cf2Th.CXCR7, SDF-1α/CXCL12, ligand binding, read-out: IC50 AMD11070): > 10 µM | Inhibitory effect on SDF-1α binding to CXCR7 (CXCR7): little or no inhibitory effect | Inhibition of SDF-1α binding to CXCR7 (CXCR7; the maximum concentration tested): did not inhibit | IC50 (CCR1; CCR1, HEK293F-CCR1, MIP-1α/CCL3, read-out: IC50 AMD11070): > 50 µM | Inhibitory effect on MIP1α mediated calcium flux (CCR1) (CCR1): little or no inhibitory effect | IC50 (CCR2b; CCR2b, HEK293F-CCR2b, MCP-1/CCL2, read-out: IC50 AMD11070): > 50 µM | Inhibitory effect on MCP-1 mediated calcium flux (CCR2b) (CCR2b): little or no inhibitory effect | Volume of distribution (VL) [2]: high | IC50 (CCR5; CCR5, HEK293F-CCR5, RANTES/CCL5, read-out: IC50 AMD11070): > 50 µM | Inhibitory effect on RANTES mediated calcium flux (CCR5) (CCR5): little or no inhibitory effect | Pharmacodynamic activity, circulating white blood cells (WBCs) ([3]; healthy volunteers and HIV patients): dose- and concentration-related changes | Increases in WBC counts ([3]; human subjects, dose-dependent, FIG. 9): 2-3 × | GEMM (CFU-GEMM), Mean ([4]; Table 7, progenitor cells per mL of blood, 1 hour post-injection, 1.5 mg/kg s.c.): 53.3 | BFU (BFU-E), Mean ([4]; Table 7, progenitor cells per mL of blood, 1 hour post-injection, 10 mg/kg s.c.): 268.1 | Nucleated Cellularity PBL-LD, Mean ([4]; Table 7 dose response, 1 hour post-injection, 20 mg/kg s.c.): 9.62e+06 mL⁻¹ | BFU (BFU-E), Mean ([4]; Table 8, progenitor cells per mL of blood, 5 mg/kg s.c., @ - 30″ (0.5 h)): 151.9 | BFU (BFU-E), Mean ([4]; Table 8, progenitor cells per mL of blood, 5 mg/kg s.c., @ - 60″ (1 h)): 144.3
